Here are results for 9 compounds from ChEMBL document CHEMBL5465560, “Selectivity Literature for EUbOPEN Chemogenomic Library” (2024).

For assay [1], the target named is Interleukin-1 receptor-associated kinase 1 (Homo sapiens) (UniProt P51617). In words: Selectivity interaction (Adapta Assay) EUB0001632a IRAK1. To be noted: at 10 µM.
Assay [2] concerns the target Aurora kinase B (Homo sapiens, UniProt Q96GD4). In words: Selectivity interaction (KinomeScan (DiscoverX)) EUB0000595a AURKB. To be noted: at 10 µM.
For assay [3], the target named is Calcium/calmodulin-dependent protein kinase type II subunit gamma (Homo sapiens) (UniProt Q13555). The conditions noted are these: at 10 µM.
Assay [4] concerns the target Misshapen-like kinase 1 (Homo sapiens, UniProt Q8N4C8). In words: Selectivity interaction (ActivX KiNativ screen (kinase selectivity in THP-1 cell lysates)) EUB0000639a MINK1. The assay is classed as subcellular. To be noted: lysate.
The target in assay [5] is Calcium/calmodulin-dependent protein kinase kinase 1 (Homo sapiens) (UniProt Q8N5S9). In words: Selectivity interaction (Ambit KINOMEscan and KiNATiv profiling in Jurkat cells) EUB0000090b CAMKK1. The assay is classed as cell-based. The conditions noted are these: at 1 µM.
The target in assay [6] is Serine/threonine-protein kinase 25 (Homo sapiens) (UniProt O00506). In words: Selectivity interaction (Ambit KINOMEscan and KiNATiv profiling in Jurkat cells) EUB0000090b STK25. Format: cell-based. To be noted: at 1 µM.
The target of assay [7] is Protein-tyrosine kinase 6 (Homo sapiens, UniProt Q13882). In words: Selectivity interaction (Upstate Kinase Profiler service (Millipore)) EUB0000056c PTK6. To be noted: at 1 µM.
In assay [8] the target is Type-1 angiotensin II receptor (Homo sapiens, UniProt P30556). In words: Selectivity interaction (Angiotensin II AT1 receptor binding assay, human recombinant ) EUB0000877a AGTR1.
Assay [9] has as its target T1, Rhodopsin kinase GRK1 (Homo sapiens) (UniProt Q15835).
T1 sequence (whole entry): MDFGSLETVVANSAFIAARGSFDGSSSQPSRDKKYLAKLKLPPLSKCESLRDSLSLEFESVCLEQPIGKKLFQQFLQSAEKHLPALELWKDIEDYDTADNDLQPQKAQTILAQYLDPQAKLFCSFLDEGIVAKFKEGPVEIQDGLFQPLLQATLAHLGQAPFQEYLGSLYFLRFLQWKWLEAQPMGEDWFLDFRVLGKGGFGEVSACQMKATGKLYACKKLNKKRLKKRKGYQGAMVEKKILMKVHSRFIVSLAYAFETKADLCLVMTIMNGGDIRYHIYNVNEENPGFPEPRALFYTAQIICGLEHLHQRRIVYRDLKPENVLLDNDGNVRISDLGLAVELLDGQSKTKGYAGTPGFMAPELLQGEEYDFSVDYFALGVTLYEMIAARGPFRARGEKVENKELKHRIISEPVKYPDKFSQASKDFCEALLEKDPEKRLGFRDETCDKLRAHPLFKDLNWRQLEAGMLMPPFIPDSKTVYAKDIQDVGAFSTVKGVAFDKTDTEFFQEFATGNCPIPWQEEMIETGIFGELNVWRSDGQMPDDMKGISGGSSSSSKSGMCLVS
In words: Selectivity interaction (KinomeScan (DiscoverX)) EUB0000092b GRK1. To be noted: at 10 µM.

In assay [10] the target is T2, Serine/threonine-protein kinase Nek1 (Homo sapiens) (UniProt Q96PY6).
T2 sequence (whole entry): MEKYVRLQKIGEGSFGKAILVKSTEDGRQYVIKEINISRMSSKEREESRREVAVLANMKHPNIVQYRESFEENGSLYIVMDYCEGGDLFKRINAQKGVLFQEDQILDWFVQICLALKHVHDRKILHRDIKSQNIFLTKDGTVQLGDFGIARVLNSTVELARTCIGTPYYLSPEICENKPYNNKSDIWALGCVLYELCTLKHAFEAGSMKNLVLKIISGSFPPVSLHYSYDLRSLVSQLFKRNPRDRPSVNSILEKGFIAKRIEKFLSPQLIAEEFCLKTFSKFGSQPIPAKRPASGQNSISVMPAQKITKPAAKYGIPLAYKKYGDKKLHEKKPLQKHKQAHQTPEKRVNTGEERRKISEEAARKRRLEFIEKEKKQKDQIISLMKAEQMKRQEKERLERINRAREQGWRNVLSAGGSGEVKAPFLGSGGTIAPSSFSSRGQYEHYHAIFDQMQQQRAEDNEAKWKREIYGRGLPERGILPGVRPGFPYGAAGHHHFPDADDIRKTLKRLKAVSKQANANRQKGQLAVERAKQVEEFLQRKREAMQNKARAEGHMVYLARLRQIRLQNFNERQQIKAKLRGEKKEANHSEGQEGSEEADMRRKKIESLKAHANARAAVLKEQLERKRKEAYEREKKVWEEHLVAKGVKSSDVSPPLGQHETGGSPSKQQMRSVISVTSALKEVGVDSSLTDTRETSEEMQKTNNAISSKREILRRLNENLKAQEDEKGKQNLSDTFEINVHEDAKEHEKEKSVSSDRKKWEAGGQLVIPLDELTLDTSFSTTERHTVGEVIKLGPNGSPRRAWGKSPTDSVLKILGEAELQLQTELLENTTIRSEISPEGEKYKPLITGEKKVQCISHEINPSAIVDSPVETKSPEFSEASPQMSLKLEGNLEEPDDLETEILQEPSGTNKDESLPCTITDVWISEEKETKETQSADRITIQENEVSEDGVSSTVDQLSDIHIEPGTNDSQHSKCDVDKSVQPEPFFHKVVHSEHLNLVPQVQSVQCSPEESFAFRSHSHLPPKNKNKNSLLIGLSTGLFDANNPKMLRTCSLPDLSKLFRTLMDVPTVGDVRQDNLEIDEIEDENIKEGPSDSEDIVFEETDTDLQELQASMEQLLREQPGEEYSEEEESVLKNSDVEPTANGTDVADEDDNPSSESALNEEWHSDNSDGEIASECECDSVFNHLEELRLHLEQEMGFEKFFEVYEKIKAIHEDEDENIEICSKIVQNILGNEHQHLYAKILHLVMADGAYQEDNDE
In words: Selectivity interaction (Kinase panel (KiNativ target engagement assay in Jurkat cells)) EUB0001635a NEK1. To be noted: at 1 µM. The assay is classed as cell-based.

Each structure is given as a SMILES string.

Chain of Misshapen-like kinase 1 (Q8N4C8 whole entry, looked up): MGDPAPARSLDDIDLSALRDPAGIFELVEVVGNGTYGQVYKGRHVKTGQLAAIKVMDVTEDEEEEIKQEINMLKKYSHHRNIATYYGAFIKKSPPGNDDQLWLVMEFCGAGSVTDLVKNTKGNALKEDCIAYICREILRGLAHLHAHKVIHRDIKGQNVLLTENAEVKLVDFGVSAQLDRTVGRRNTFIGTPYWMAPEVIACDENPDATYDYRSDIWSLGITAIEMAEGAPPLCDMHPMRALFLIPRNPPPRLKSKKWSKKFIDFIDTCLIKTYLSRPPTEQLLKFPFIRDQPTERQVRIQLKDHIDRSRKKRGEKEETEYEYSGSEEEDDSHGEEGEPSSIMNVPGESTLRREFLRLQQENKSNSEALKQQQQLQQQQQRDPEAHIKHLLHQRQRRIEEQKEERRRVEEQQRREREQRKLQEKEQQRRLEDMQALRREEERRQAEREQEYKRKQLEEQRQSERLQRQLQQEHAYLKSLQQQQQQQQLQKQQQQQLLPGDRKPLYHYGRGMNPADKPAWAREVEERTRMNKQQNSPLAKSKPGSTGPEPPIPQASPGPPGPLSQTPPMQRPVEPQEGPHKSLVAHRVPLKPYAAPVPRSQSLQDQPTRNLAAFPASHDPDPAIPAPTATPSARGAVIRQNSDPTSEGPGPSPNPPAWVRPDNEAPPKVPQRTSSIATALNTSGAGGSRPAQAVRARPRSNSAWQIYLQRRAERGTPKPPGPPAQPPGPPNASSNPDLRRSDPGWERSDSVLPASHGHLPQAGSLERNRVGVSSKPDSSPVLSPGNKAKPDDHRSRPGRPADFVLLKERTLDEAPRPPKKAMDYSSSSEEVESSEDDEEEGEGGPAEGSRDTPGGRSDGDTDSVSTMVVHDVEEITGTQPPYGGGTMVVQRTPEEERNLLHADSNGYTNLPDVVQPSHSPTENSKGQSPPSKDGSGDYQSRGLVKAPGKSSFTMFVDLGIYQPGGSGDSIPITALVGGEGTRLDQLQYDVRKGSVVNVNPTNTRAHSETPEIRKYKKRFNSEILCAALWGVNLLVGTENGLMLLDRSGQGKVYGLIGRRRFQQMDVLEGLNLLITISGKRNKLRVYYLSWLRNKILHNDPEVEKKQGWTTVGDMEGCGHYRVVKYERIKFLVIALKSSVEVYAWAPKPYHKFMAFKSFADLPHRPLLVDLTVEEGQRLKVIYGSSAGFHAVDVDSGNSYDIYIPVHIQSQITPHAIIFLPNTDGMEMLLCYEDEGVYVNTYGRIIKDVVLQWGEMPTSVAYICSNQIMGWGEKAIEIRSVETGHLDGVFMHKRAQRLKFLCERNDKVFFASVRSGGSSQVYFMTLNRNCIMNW
Chain of Serine/threonine-protein kinase 25 (Homo sapiens) (O00506 whole entry, looked up): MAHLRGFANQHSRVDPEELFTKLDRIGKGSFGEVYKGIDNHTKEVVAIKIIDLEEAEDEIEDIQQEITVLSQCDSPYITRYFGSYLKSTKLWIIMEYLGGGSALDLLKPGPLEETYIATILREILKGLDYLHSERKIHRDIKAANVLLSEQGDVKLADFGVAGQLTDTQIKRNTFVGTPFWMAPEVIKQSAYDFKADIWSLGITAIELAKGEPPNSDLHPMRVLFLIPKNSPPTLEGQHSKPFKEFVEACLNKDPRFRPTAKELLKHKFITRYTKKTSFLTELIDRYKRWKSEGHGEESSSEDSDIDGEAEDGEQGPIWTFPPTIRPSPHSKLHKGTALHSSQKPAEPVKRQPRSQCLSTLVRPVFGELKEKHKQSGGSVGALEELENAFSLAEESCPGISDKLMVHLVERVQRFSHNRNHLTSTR
Chain of Calcium/calmodulin-dependent protein kinase kinase 1 (Homo sapiens) (Q8N5S9 whole entry, looked up): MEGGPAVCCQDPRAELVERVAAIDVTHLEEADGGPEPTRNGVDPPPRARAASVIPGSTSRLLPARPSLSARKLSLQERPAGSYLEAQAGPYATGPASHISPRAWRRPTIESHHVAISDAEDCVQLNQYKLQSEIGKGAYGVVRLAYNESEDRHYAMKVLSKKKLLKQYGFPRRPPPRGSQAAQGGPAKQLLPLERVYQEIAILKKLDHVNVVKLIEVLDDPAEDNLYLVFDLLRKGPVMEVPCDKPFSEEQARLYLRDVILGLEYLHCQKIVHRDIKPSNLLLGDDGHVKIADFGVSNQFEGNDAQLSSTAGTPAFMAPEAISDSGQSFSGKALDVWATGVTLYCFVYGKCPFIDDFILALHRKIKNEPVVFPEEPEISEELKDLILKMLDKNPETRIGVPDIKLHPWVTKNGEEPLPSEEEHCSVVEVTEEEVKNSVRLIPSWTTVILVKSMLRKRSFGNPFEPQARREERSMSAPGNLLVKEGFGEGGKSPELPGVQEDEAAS
Chain of Type-1 angiotensin II receptor (P30556 whole entry): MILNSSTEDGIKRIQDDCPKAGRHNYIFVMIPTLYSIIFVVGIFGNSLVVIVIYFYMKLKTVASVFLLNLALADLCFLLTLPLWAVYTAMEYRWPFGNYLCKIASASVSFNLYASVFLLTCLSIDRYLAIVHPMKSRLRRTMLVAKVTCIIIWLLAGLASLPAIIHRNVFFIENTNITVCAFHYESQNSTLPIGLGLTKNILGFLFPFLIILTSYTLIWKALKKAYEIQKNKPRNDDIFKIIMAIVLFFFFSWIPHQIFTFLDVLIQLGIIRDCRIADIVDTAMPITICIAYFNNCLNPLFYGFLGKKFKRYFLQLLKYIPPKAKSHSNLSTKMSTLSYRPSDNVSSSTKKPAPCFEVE
Chain of Calcium/calmodulin-dependent protein kinase type II subunit gamma (Homo sapiens) (Q13555 whole entry): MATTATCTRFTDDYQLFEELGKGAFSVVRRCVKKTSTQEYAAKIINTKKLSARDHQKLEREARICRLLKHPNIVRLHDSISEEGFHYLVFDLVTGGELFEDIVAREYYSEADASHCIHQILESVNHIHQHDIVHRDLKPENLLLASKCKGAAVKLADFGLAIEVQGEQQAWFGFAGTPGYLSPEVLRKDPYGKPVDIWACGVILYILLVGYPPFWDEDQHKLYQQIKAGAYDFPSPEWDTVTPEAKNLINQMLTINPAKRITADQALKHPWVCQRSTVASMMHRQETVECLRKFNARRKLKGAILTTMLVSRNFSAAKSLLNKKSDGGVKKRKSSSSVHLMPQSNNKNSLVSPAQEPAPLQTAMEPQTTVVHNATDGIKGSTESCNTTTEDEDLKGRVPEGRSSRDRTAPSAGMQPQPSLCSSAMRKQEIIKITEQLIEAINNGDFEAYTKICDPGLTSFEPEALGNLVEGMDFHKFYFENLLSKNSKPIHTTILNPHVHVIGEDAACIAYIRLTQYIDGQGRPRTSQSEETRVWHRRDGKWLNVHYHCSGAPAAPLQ
Chain of Aurora kinase B (Q96GD4 whole entry): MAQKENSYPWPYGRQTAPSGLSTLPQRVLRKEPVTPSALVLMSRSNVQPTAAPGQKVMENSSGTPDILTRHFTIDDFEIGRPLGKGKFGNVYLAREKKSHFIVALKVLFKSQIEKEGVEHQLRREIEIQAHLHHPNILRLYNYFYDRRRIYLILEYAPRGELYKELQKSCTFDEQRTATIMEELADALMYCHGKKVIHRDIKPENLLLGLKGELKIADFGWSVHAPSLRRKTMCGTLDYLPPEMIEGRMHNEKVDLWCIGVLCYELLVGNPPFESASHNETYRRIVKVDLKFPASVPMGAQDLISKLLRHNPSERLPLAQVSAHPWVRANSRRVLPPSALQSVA
Chain of Interleukin-1 receptor-associated kinase 1 (Homo sapiens) (P51617 whole entry, looked up): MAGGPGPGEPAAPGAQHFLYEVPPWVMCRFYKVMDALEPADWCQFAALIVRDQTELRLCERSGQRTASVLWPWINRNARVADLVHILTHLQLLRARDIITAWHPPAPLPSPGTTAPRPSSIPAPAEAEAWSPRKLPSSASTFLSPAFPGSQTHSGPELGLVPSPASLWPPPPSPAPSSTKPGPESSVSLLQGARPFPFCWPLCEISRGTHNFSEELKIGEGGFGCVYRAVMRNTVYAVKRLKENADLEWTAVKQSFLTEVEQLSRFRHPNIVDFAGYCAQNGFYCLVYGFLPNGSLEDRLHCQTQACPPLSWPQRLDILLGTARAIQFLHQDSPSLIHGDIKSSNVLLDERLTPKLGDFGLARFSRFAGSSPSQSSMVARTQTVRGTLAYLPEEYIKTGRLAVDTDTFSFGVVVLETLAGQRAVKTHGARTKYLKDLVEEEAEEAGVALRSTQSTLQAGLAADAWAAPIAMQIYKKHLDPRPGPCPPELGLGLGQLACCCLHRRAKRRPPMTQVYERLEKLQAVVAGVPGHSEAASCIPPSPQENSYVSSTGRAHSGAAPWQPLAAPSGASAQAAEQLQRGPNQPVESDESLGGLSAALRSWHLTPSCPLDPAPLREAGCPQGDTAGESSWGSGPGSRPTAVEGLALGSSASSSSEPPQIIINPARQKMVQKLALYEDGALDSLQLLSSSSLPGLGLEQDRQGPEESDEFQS
Chain of Protein-tyrosine kinase 6 (Q13882 whole entry, looked up): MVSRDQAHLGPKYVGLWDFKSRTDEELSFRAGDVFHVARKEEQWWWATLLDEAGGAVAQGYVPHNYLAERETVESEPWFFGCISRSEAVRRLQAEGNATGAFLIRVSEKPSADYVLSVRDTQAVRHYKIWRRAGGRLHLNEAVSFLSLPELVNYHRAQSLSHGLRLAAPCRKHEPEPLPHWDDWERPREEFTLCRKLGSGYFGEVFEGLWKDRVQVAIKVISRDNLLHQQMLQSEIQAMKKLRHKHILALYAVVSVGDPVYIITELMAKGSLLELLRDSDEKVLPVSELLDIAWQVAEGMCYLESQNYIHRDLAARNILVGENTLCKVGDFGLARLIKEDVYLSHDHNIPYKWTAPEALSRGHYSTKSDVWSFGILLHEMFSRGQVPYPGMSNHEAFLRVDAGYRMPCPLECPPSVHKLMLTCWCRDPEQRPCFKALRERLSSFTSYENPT

On to `Cn1cc(-n2cnc3c(NCc4nc5cc(Cl)c(Cl)cc5[nH]4)nc(N4CCOCC4)nc32)cn1`, for which the % of inhibition in assay [1] is -6.48%.

`COCC(=O)NC/C=C/c1ccc2ncnc(Nc3ccc(Oc4ccc(C)nc4)c(C)c3)c2c1` [CP-724714] came in with a % of control in assay [2] of 100%. `Cc1cc([C@@H](C)Nc2ccccc2C(=O)O)c2nc(N3CCOCC3)cc(=O)n2c1` [AZD-6482]: the % of control in assay [3] was found to be 98%. Take `CC[C@@H]1[C@H](F)C(=O)N[C@@H]1COc1nccc2cc(C(N)=O)c(OC)cc12` [ZIMLOVISERTIB]: the % of inhibition in assay [4] (at 0.01 µM) was -5.5%; in [4] (at 0.04 µM) it was -1.7%; in assay [4] (at 0.2 µM), -13.9%; in assay [4] (at 1 µM), -2.7%; in assay [4] (at 5 µM) it was 3.1%.

As for `CN(C)C/C=C/C(=O)Nc1ccc(C(=O)N2CCCC(Nc3ncc(Cl)c(-c4c[nH]c5ccccc45)n3)C2)cc1` (centres undefined), the % of control in assay [5] was 92%; in [6] it was 77%. `Cc1ccc(-c2ccc3c(ccc4sc5c(c43)NC[C@@H](C)NC5=O)n2)cn1`: in assay [7], the % of inhibition is 0%.

Turning to `CCC(=O)N1CC[C@H](Nc2ncnc3c2CN(c2cnc(OC)c(C(F)(F)F)c2)CC3)C1` [LENIOLISIB], in [8], the IC50 was above 30 µM. In [9], `CCC(=O)N1CCN(c2ccc(-n3c(=O)ccc4cnc5ccc(-c6cnc7ccccc7c6)cc5c43)cc2C(F)(F)F)CC1` gave a % of control of 99%.

Turning to `C=CC(=O)Nc1ccc(C(=O)Nc2[nH]nc3c2CN(C(=O)N[C@H](CN(C)C)c2ccccc2)C3(C)C)cc1`, in [10], the % of engagement was -2.5%.
